# From patent publication US8222247B2, “Modulators of glucocorticoid receptor, AP-1, and/or NF-kappabeta activity and use thereof” (Bristol-Myers Squibb Company, priority 2006, dated 2012)
# Read-outs that look alike come from different tables or passages of the source.
# Test system: AP-1 induced transcriptional activity
# Test: Cellular Transrepressional Assay (AP-1 luciferase reporter in A549 cell, PMA activated)
# Type: cell-based
# Settings: pAP-1-Luc; for Emax / AP-1 Max % inh (Cellular Transrepression Assay): maximum inhibition, PMA; for Emax: read-out: AP-1 Max % inh (Cellular Transrepression Assay); for EC50: 10 ng/ml PMA, 7 hours, read-out: AP-1 EC50, nM (Cellular Transrepression Assay)
# Description: Cellular Transrepressional Assay
# To measure the ability of test molecules to inhibit AP-1 induced transcriptional activity we utilized an A549 cell which was stably transfected with a plasmid containing 7×AP-1 DNA binding sites (pAP-1-Luc plasmid, Stratagene Co. La Jolla, Calif.) followed by the gene for luciferase. Cells were activated with 10 ng/ml of phorbol myristic acid (PMA) plus or minus test molecules for 7 hours. After 7 hours a luciferase reagent was added to measure luciferase enzymatic activity in the cell. After a 10 minute incubation of luciferase reagent with cells, luminescence was measured in a TopCount luminescence counter. Repression of AP-1 activity was calculated as the percentage decrease in the signal induced by PMA alone. Test molecules were analyzed in the concentration range from 0.1 nM to 40 μM. EC50s were determined by using standard curve fitting methods such as Excel fit (Microsoft Co.). An EC50 is the test molecule concentration at which there is a 50% repression of the maximal inhibition of transcription, i.e. a 50% reduction of AP-1 activity.
"EC50 (Homo sapiens, A549, 7 h) [nM]",EC50 [nM],SMILES,"Emax (Homo sapiens, A549, 7 h) [%]",AP-1 Max % inh (Cellular Transrepression Assay) [% inh]
30.3,–,"CC(C)(C(=O)Nc1nncs1)[C@@H](c1cccc(F)c1)c1ccc(-c2ccc(C(=O)N3CCC(F)(F)C3)cc2)s1 [Example 79, (3R)-3-(5-(4-((3,3-difluoro-1-pyrrolidinyl)carbonyl)phenyl)-2-thienyl)-3-(3-fluorophenyl)-2,2-dimethyl-N-1,3,4-thiadiazol-2-ylpropanamide]",42.6,–
–,168,"CC(C(=O)Nc1nncs1)C(c1ccccc1)c1ccc(-c2ccc(C(=O)N(C)C)cc2)s1 (single isomer, unassigned) [Example 147, N,N-dimethyl-4-(5-(2-methyl-3-oxo-1-phenyl-3-(1,3,4-thiadiazol-2-ylamino)propyl)-2-thienyl)benzamide]",–,48.44
24,–,"CC(C)Oc1ccc(-c2ccc(C(c3ccccc3)C(C)(C)C(=O)Nc3nncs3)cn2)cc1 (stereo not shown) [Example 33, 3-(6-(4-isopropoxyphenyl)-3-pyridinyl)-2,2-dimethyl-3-phenyl-N-1,3,4-thiadiazol-2-ylpropanamide]",37.7,–
–,203,"CCN(C)C(=O)c1ccc(-c2ccc(C(c3ccccc3)C(C)C(=O)Nc3nncs3)s2)cc1 (single isomer, unassigned) [Example 151, N-ethyl-N-methyl-4-(5-(2-methyl-3-oxo-1-phenyl-3-(1,3,4-thiadiazol-2-ylamino)propyl)-2-thienyl)benzamide]",–,48.08
16.9,–,"CCN(C)C(=O)c1ccc(-c2ccc([C@@H](c3cccc(F)c3)[C@@H](C)C(=O)Nc3nccs3)s2)cc1 [Example 143, N-ethyl-4-(5-((1R,2R)-1-(3-fluorophenyl)-2-methyl-3-oxo-3-(1,3-thiazol-2-ylamino)propyl)-2-thienyl)-N-methylbenzamide]",63.6,–
–,446,"CC(C(=O)Nc1nncs1)C(c1cccc(F)c1)c1ccc(-c2ccc(C(=O)N(C)C)c(Cl)c2)s1 (single isomer, unassigned) [Example 105, 2-chloro-4-(5-(1-(3-fluorophenyl)-2-methyl-3-oxo-3-(1,3,4-thiadiazol-2-ylamino)propyl)-2-thienyl)-N,N-dimethylbenzamide]",–,48.50
–,5.36,"CCCc1ccc(-c2ccc(C(c3cccc(F)c3)C(C)(C)C(=O)Nc3nncs3)s2)cc1 (stereo not shown) [Example 40, -(3-fluorophenyl)-2,2-dimethyl-3-(5-(4-propylphenyl)-2-thienyl)-N-1,3,4-thiadiazol-2-ylpropanamide]",–,37.26
3.71,–,"CC(C)(C(=O)Nc1nncs1)C(c1ccccc1)c1ccc(-c2ccc(C(=O)N3CCCC3)cc2)s1 (stereo not shown) [Example 47, 2,2-dimethyl-3-phenyl-3-(5-(4-(1-pyrrolidinylcarbonyl)phenyl)-2-thienyl)-N-1,3,4-thiadiazol-2-ylpropanamide]",39.9,–
3.04,–,"CC(C)(C(=O)Nc1nncs1)[C@@H](c1cccc(F)c1)c1ccc(-c2ccc(C(=O)N3CCOCC3)cc2)s1 [Example 64, (3R)-3-(3-Fluorophenyl)-2,2-dimethyl-3-(5-(4-(4-morpholinylcarbonyl)phenyl)-2-thienyl)-N-1,3,4-thiadiazol-2-ylpropanamide]",53.8,–
11.6,–,"CN(C)C(=O)c1ccc(-c2ccc(C(c3cccc(F)c3)C(C)(C)C(=O)Nc3nccs3)s2)cc1 (stereo not shown) [Example 42, 4-(5-(1-(3-Fluorophenyl)-2,2-dimethyl-3-oxo-3-(1,3-thiazol-2-ylamino)propyl)-2-thienyl)-N,N-dimethylbenzamide]",42.9,–
15.9,–,"CCN(C)C(=O)c1ccc(-c2ccc([C@@H](c3cccc(F)c3)[C@@H](C)C(=O)Nc3nncs3)s2)cc1 [Example 107, N-ethyl-4-(5-((1R,2R)-1-(3-fluorophenyl)-2-methyl-3-oxo-3-(1,3,4-thiadiazol-2-ylamino)propyl)-2-thienyl)-N-methylbenzamide]",52.5,–
21.2,–,"C[C@@H](C(=O)Nc1nncs1)[C@H](c1cccc(F)c1)c1ccc(-c2ccc(C(=O)N3CCOCC3)c(Cl)c2)s1 [Example 111, (2R,3R)-3-(5-(3-chloro-4-(4-morpholinylcarbonyl)phenyl)-2-thienyl)-3-(3-fluorophenyl)-2-methyl-N-1,3,4-thiadiazol-2-ylpropanamide]",53.3,–
–,64.6,"CC(C(=O)Nc1nncs1)C(c1ccccc1)c1ccc(-c2ccc(C(=O)N3CCOCC3)cc2)s1 (single isomer, unassigned) [Example 145, 2-methyl-3-(5-(4-(4-morpholinylcarbonyl)phenyl)-2-thienyl)-3-phenyl-N-1,3,4-thiadiazol-2-ylpropanamide]",–,25.24
6.5,–,"CC(C)(C(=O)Nc1nncs1)C(c1cccc(F)c1)c1ccc(-c2ccc(C(=O)N3CCCC3)cc2)s1 (stereo not shown) [Example 41, 3-(3-fluorophenyl)-2,2-dimethyl-3-(5-(4-(1-pyrrolidinylcarbonyl)phenyl)-2-thienyl)-N-1,3,4-thiadiazol-2-ylpropanamide]",65.5,–
833,–,"CCN(CC)C(=O)c1ccc(-c2ccc([C@H](c3cccc(F)c3)C(C)(C)C(=O)Nc3nncs3)s2)cc1Cl [Example 70, 2-chloro-N,N-diethyl-4-(5-((1R)-1-(3-fluorophenyl)-2,2-dimethyl-3-oxo-3-(1,3,4-thiadiazol-2-ylamino)propyl)-2-thienyl)benzamide]",23,–
24.6,–,"C[C@@H](C(=O)Nc1nncs1)[C@H](c1cccc(F)c1)c1ccc(-c2ccc(C(=O)N(C)C)c(Cl)c2)s1 [Example 110, 2-Chloro-4-(5-((1R,2R)-1-(3-fluorophenyl)-2-methyl-3-oxo-3-(1,3,4-thiadiazol-2-ylamino)propyl)-2-thienyl)-N,N-dimethylbenzamide]",47,–
12.8,–,"CC(C)(C(=O)Nc1nncs1)[C@@H](c1cccc(F)c1)c1ccc(-c2ccc(C(=O)N3CCOCC3)c(Cl)c2)s1 [Example 67, (3R)-3-(5-(3-chloro-4-(4-morpholinylcarbonyl)phenyl)-2-thienyl)-3-(3-fluorophenyl)-2,2-dimethyl-N-1,3,4-thiadiazol-2-ylpropanamide]",51.2,–
62.9,–,"CC(C)(C(=O)Nc1nccs1)C(c1ccccc1)c1ccc(N2CCOCC2)nc1 (stereo not shown) [Example 14, 2,2-dimethyl-3-(6-(4-morpholinyl)-3-pyridinyl)-3-phenyl-N-1,3-thiazol-2-ylpropanamide]",46,–
–,15.7,"CCN(C)C(=O)c1ccc(-c2ccc(C(c3ccccc3)C(C)(C)C(=O)Nc3nncs3)s2)cc1 (stereo not shown) [Example 88, 4-(5-(2,2-dimethyl-3-oxo-1-phenyl-3-(1,3,4-thiadiazol-2-ylamino)propyl)-2-thienyl)-N-ethyl-N-methylbenzamide]",–,43.56
7,–,"CN(C)C(=O)c1ccc(-c2ccc([C@H](c3cccc(F)c3)C(C)(C)C(=O)Nc3nncs3)s2)cc1 [Example 65, 4-(5-((1R)-1-(3-fluorophenyl)-2,2-dimethyl-3-oxo-3-(1,3,4-thiadiazol-2-ylamino)propyl)-2-thienyl)-N,N-dimethylbenzamide]",49.6,–
